Measurements from EP4635500A1, “THERAPEUTIC AGENT FOR BACTERIAL INFECTION” (Sumitomo Pharma Co., Ltd., priority 2022, dated 2024).
≈ marks a conversion by molar mass, not a printed value. Read-outs that look alike come from different tables or passages of the source.

Assays:
[1] = test system: Enterobacterales; assay: MIC, broth microdilution, CDC/FDA Antibiotic Resistance Isolate Bank (Example 7, Tables 8, 11, 12); format: cell-based
[2] = test system: A. baumannii; assay: MIC, broth microdilution, CDC/FDA Antibiotic Resistance Isolate Bank (Example 7, Tables 9, 13, 14); format: cell-based, Acinetobacter baumannii; conditions: for MIC: read-out: MIC
[3] = test system: 53 CRE and CPE strains; assay: MICrange, MIC50, MIC80, MIC90 for 53 bacterial isolates (Example 5, Table 5); format: cell-based

SMILES: C[C@@H](O)[C@H]1C(=O)N2C(C(=O)O)=C(S[C@@H]3CN[C@H](C(=O)N(C)C)C3)[C@H](C)[C@H]12 [MEPM, meropenem]
- MIC ([1]; Klebsiella pneumoniae, KUB No. 5635, AR Bank# 138, NDM-7, read-out: MIC): > 32 µg/mL
- MIC ([1]; Klebsiella pneumoniae, KUB No. 5636, AR Bank# 139, NDM-1, read-out: MIC): 0.12 µg/mL (≈ 0.313 µM)
- MIC ([1]; Klebsiella pneumoniae, KUB No. 5637, AR Bank# 140, OXA-181, read-out: MIC): 1 µg/mL (≈ 2.61 µM)
- MIC ([1]; Klebsiella pneumoniae, KUB No. 5639, AR Bank# 142, OXA-181, read-out: MIC): 1 µg/mL (≈ 2.61 µM)
- MIC ([1]; Klebsiella pneumoniae, KUB No. 5640, AR Bank# 143, NDM-L, read-out: MIC): > 32 µg/mL
- MIC ([1]; Klebsiella pneumoniae, KUB No. 5642, AR Bank# 145, NDM-1, read-out: MIC): 8 µg/mL (≈ 20.9 µM)
- MIC ([1]; Klebsiella pneumoniae, KUB No. 5643, AR Bank# 146, NDM-1, read-out: MIC): 8 µg/mL (≈ 20.9 µM)
- MIC ([1]; Klebsiella pneumoniae, KUB No. 5645, AR Bank# 148, NDM-1, read-out: MIC): 8 µg/mL (≈ 20.9 µM)
- MIC ([1]; Klebsiella pneumoniae, KUB No. 5650, AR Bank# 153, OXA-232, NDM-1, read-out: MIC): > 32 µg/mL
- MIC ([1]; Klebsiella pneumoniae, KUB No. 5655, AR Bank# 158, NDM-1, read-out: MIC): 8 µg/mL (≈ 20.9 µM)
- MIC ([1]; Klebsiella pneumoniae, KUB No. 5657, AR Bank# 160, OXA-48, read-out: MIC): 8 µg/mL (≈ 20.9 µM)
- MIC ([1]; Klebsiella pneumoniae, KUB No. 5757, AR Bank# 361, KPC-2, read-out: MIC): 8 µg/mL (≈ 20.9 µM)
- MIC ([1]; Klebsiella pneumoniae, KUB No. 5758, AR Bank# 362, KPC-2, read-out: MIC): 8 µg/mL (≈ 20.9 µM)
- MIC ([1]; Klebsiella pneumoniae, KUB No. 5759, AR Bank# 363, KPC-2, read-out: MIC): 4 µg/mL (≈ 10.4 µM)
- MIC ([1]; Klebsiella pneumoniae, KUB No. 5760, AR Bank# 364, no carbapenemase genes, read-out: MIC): 1 µg/mL (≈ 2.61 µM)
- MIC ([1]; Klebsiella pneumoniae, KUB No. 5772, AR Bank# 376, no carbapenemase genes, read-out: MIC): 0.12 µg/mL (≈ 0.313 µM)
- MIC ([1]; Klebsiella pneumoniae, KUB No. 5797, AR Bank# 453, KPC-3, read-out: MIC): > 32 µg/mL
- MIC ([1]; Klebsiella pneumoniae, KUB No. 5809, AR Bank# 504, OXA-48, read-out: MIC): 4 µg/mL (≈ 10.4 µM)
- MIC ([1]; Klebsiella pneumoniae, KUB No. 5810, AR Bank# 505, NDM-1, read-out: MIC): 16 µg/mL (≈ 41.7 µM)
- MIC ([1]; Klebsiella pneumoniae, KUB No. 5811, AR Bank# 506, NDM-1, read-out: MIC): 16 µg/mL (≈ 41.7 µM)
- MIC ([1]; Klebsiella pneumoniae, KUB No. 5812, AR Bank# 507, OXA-232, NDM-1, read-out: MIC): > 32 µg/mL
- MIC ([1]; Klebsiella pneumoniae, KUB No. 5827, AR Bank# 522, KPC-2, read-out: MIC): 8 µg/mL (≈ 20.9 µM)
- MIC ([1]; Klebsiella pneumoniae, KUB No. 5828, AR Bank# 523, KPC-2 (row continued in Table 8-7), read-out: MIC): 16 µg/mL (≈ 41.7 µM)
- MIC ([1]; Klebsiella pneumoniae, KUB No. 5829, AR Bank# 524, KPC-3, read-out: MIC): 16 µg/mL (≈ 41.7 µM)
- MIC ([1]; Klebsiella pneumoniae, KUB No. 5830, AR Bank# 525, KPC-11, read-out: MIC): 8 µg/mL (≈ 20.9 µM)
- MIC ([1]; Klebsiella pneumonice, KUB No. 5649, AR Bank# 152, NDM-1, read-out: MIC): 8 µg/mL (≈ 20.9 µM)
- MIC ([1]; Kluyvera ascorbata): 2 µg/mL (≈ 5.22 µM)
- MIC ([1]; Morganella morganii, KUB No. 5630, AR Bank# 133, KPC-2, read-out: MIC): 1 µg/mL (≈ 2.61 µM)
- MIC ([1]; Morganella morganii, KUB No. 5824, AR Bank# 519, no carbapenemase genes, read-out: MIC): 2 µg/mL (≈ 5.22 µM)
- MIC ([1]; Proteus mirabilis, KUB No. 5556, AR Bank # 59, no carbapenemase gene, read-out: MIC): 0.12 µg/mL (≈ 0.313 µM)
- MIC ([1]; Proteus mirabilis, KUB No. 5652, AR Bank# 155, KPC-6, read-out: MIC): 1 µg/mL (≈ 2.61 µM)
- MIC ([1]; Proteus mirabilis, KUB No. 5653, AR Bank# 156, KPC-2, read-out: MIC): 0.12 µg/mL (≈ 0.313 µM)
- MIC ([1]; Proteus mirabilis, KUB No. 5656, AR Bank# 159, NDM-1, read-out: MIC): 2 µg/mL (≈ 5.22 µM)
- MIC ([1]; Proteus mirabilis, KUB No. 5773, AR Bank# 377, KPC-3, read-out: MIC): 1 µg/mL (≈ 2.61 µM)
- MIC ([1]; Proteus mirabilis, KUB No. 5775, AR Bank# 379, no carbapenemase genes, read-out: MIC): ≤ 0.06 µg/mL
- MIC ([1]; Providencia rettgeri): 8 µg/mL (≈ 20.9 µM)
- MIC ([1]; Salmonella enterica): 16 µg/mL (≈ 41.7 µM)
- MIC ([1]; Serratia marcescens, KUB No. 5588, AR Bank # 91, SME-3, read-out: MIC): 16 µg/mL (≈ 41.7 µM)
- MIC ([1]; Serratia marcescens, KUB No. 5596, AR Bank # 99, SME-3, read-out: MIC): 16 µg/mL (≈ 41.7 µM)
- MIC ([1]; Serratia marcescens, KUB No. 5618, AR Bank # 121, SME-3, read-out: MIC): 16 µg/mL (≈ 41.7 µM)
- MIC ([1]; Serratia marcescens, KUB No. 5619, AR Bank # 122, SME-3, read-out: MIC): 32 µg/mL (≈ 83.4 µM)
- MIC ([1]; Serratia marcescens, KUB No. 5620, AR Bank # 123, SME-3, read-out: MIC): 2 µg/mL (≈ 5.22 µM)
- MIC ([1]; Serratia marcescens, KUB No. 5621, AR Bank # 124, SME-3, read-out: MIC): 32 µg/mL (≈ 83.4 µM)
- MIC ([1]; Serratia marcescens, KUB No. 5627, AR Bank # 130, SME-3, read-out: MIC): 8 µg/mL (≈ 20.9 µM)
- MIC ([1]; Serratia marcescens, KUB No. 5628, AR Bank # 131, SME-3, read-out: MIC): 0.5 µg/mL (≈ 1.3 µM)
- MIC ([1]; Serratia marcescens, KUB No. 5822, AR Bank# 517, KPC-3, read-out: MIC): 8 µg/mL (≈ 20.9 µM)
- MIC ([1]; Serratia marcescens, KUB No. 5825, AR Bank# 520, no carbapenemase genes, read-out: MIC): ≤ 0.06 µg/mL
- MIC ([1]; Serratia marcescens, KUB No. 5826, AR Bank# 521, no carbapenemase genes, read-out: MIC): ≤ 0.06 µg/mL
- MIC50 ([2]; 55 isolates of A. baumannii): 32 µg/mL (≈ 83.4 µM)
- MIC ([2]; Acinetobacter baumannii, A. baumannii KUB No. 5567, AR Bank #70, OXA-58, OXA-100): 8 µg/mL (≈ 20.9 µM)
- MIC ([2]; Acinetobacter baumannii, A. baumannii KUB No. 5575, AR Bank #78, OXA-71): 32 µg/mL (≈ 83.4 µM)
- MIC ([2]; Acinetobacter baumannii, A. baumannii KUB No. 5706, AR Bank #273, OXA-23, OXA-66): 32 µg/mL (≈ 83.4 µM)
- MIC ([2]; Acinetobacter baumannii, A. baumannii KUB No. 5708, AR Bank #275, OXA-23, OXA-66): 32 µg/mL (≈ 83.4 µM)
- MIC ([2]; Acinetobacter baumannii, A. baumannii KUB No. 5709, AR Bank #276, no carbapenemase genes (-)): 4 µg/mL (≈ 10.4 µM)
- MIC ([2]; Acinetobacter baumannii, A. baumannii KUB No. 5711, AR Bank #278, OXA-23, OXA-66): 32 µg/mL (≈ 83.4 µM)
- MIC ([2]; Acinetobacter baumannii, A. baumannii KUB No. 5712, AR Bank #279, OXA-23, OXA-66): 32 µg/mL (≈ 83.4 µM)
- MIC ([2]; Acinetobacter baumannii, A. baumannii KUB No. 5714, AR Bank #281, OXA-82): 8 µg/mL (≈ 20.9 µM)
- MIC ([2]; Acinetobacter baumannii, A. baumannii KUB No. 5715, AR Bank #282, OXA-23, OXA-66): 32 µg/mL (≈ 83.4 µM)
- MIC ([2]; Acinetobacter baumannii, A. baumannii KUB No. 5716, AR Bank #283, OXA-23, OXA-66): 32 µg/mL (≈ 83.4 µM)
- MIC ([2]; Acinetobacter baumannii, A. baumannii KUB No. 5721, AR Bank #288, OXA-23, OXA-66): 16 µg/mL (≈ 41.7 µM)
- MIC ([2]; Acinetobacter baumannii, A. baumannii KUB No. 5723, AR Bank #90, OXA-23, OXA-66): 32 µg/mL (≈ 83.4 µM)
- MIC ([2]; Acinetobacter baumannii, A. baumannii KUB No. 5724, AR Bank #291, OXA-23, OXA-66): 32 µg/mL (≈ 83.4 µM)
- MIC ([2]; Acinetobacter baumannii, A. baumannii KUB No. 5727, AR Bank #294, OXA-23, OXA-65): 32 µg/mL (≈ 83.4 µM)
- MIC ([2]; Acinetobacter baumannii, A. baumannii KUB No. 5728, AR Bank #295, OXA-23, OXA-66): 32 µg/mL (≈ 83.4 µM)
- MIC ([2]; Acinetobacter baumannii, A. baumannii KUB No. 5729, AR Bank #296, OXA-23, OXA-223): 64 µg/mL (≈ 167 µM)
- MIC ([2]; Acinetobacter baumannii, A. baumannii KUB No. 5730, AR Bank #297, OXA-23, OXA-66): 16 µg/mL (≈ 41.7 µM)
- MIC ([2]; Acinetobacter baumannii, A. baumannii KUB No. 5731, AR Bank #298, OXA-66, OXA-237): 16 µg/mL (≈ 41.7 µM)
- MIC ([2]; Acinetobacter baumannii, A. baumannii KUB No. 5732, AR Bank #299, OXA-23, OXA-203): 32 µg/mL (≈ 83.4 µM)
- MIC ([2]; Acinetobacter baumannii, A. baumannii KUB No. 5735, AR Bank #302, OXA-23, OXA-82): 32 µg/mL (≈ 83.4 µM)
- MIC ([2]; Acinetobacter baumannii, A. baumannii KUB No. 5736, AR Bank #303, OXA-23, OXA-66): 16 µg/mL (≈ 41.7 µM)
- MIC ([2]; Acinetobacter baumannii, A. baumannii KUB No. 5737, AR Bank #304, OXA-66, OXA-72): 64 µg/mL (≈ 167 µM)
- MIC ([2]; Acinetobacter baumannii, A. baumannii KUB No. 5740, AR Bank #307, OXA-66, OXA-237): 8 µg/mL (≈ 20.9 µM)
- MIC ([2]; Acinetobacter baumannii, A. baumannii KUB No. 5741, AR Bank #308, OXA-71): 16 µg/mL (≈ 41.7 µM)
- MIC ([2]; Acinetobacter baumannii, A. baumannii KUB No. 5742, AR Bank #309, OXA-23, OXA-82): 32 µg/mL (≈ 83.4 µM)
- MIC ([2]; Acinetobacter baumannii, A. baumannii KUB No. 5743, AR Bank #310, OXA-23, OXA-82): 32 µg/mL (≈ 83.4 µM)
- MIC ([2]; Acinetobacter baumannii, A. baumannii KUB No. 5744, AR Bank #311, OXA-23, OXA-82): 32 µg/mL (≈ 83.4 µM)
- MIC ([2]; Acinetobacter baumannii, A. baumannii KUB No. 5745, AR Bank #312, OXA-69): 4 µg/mL (≈ 10.4 µM)
- MIC ([2]; Acinetobacter baumannii, A. baumannii KUB No. 5746, AR Bank #313, OXA-23, OXA-69): 16 µg/mL (≈ 41.7 µM)
- MIC50 ([2]; Acinetobacter baumannii, 55 strains of A. baumannii, read-out: MIC50): 32 µg/mL (≈ 83.4 µM)
- MIC50 ([3]; 53 CRE and CPE strains, read-out: MIC50): 4 µg/mL (≈ 10.4 µM)
- MIC80 ([3]; 53 CRE and CPE strains, read-out: MIC80): 16 µg/mL (≈ 41.7 µM)
- MIC90 ([3]; 53 CRE and CPE strains, read-out: MIC90): 64 µg/mL (≈ 167 µM)
- MIC50 ([3]; 53 bacterial isolates): 4 µg/mL (≈ 10.4 µM)
- MIC80 ([3]; 53 bacterial isolates): 16 µg/mL (≈ 41.7 µM)
- MIC90 ([3]; 53 bacterial isolates): 64 µg/mL (≈ 167 µM)
- MICrange ([3]; 53 bacterial isolates): 0.06 to 256 µg/mL
